Reference: patent publication US9211292B2, “Preventing or reducing drug abuse and overdose events” (ALITAIR PHARMACEUTICALS INC, priority 2011, dated 2015)

Test: Dissolution testing, simulated empty stomach (USP 31 NF26 Apparatus 2, 0.1N HCl)
Assay type: physicochemical
Conditions: for HCBT Released / HCBT Released, Percent of Original Dose: 80 mg dose, 0.1N HCl 250 ml 37° C.
Method: The resinate or pure HCBT was weighed to determine the dose to be tested. The resinate or pure HCBT powder was added directly to the vessel for dissolution testing without the use of a capsule or tablet and its associated excipients. The conditions in the first stage to simulate dissolution in an empty stomach were as follows:
The above resinate of the invention having an 11.5% HCBT loading was tested at dosages of 10 mg, 40 mg and 80 mg HCBT. The resinate of the invention having 60.7% HCBT loading was tested at dosages of 10 and 80 mg HCBT. […] A given dose was placed in the dissolution apparatus and stirred for a given length of time. At the end of that time, the quantity of HCBT released was determined by high pressure liquid chromatography.

For `COc1ccc2c3c1O[C@H]1C(=O)CC[C@H]4[C@@H](C2)N(C)CC[C@]314` [Pure HCBT, Hydrocodone bitartrate], the “drug released (FIG. 1)” value (80 mg dosage in powder form, simulated empty stomach) was “released essentially all of the drug”, the “HCBT Released” value (15 min) was 78.8 mg and the “HCBT Released, Percent of Original Dose” value (15 min) was 98.6% of Original Dose. The “HCBT Released” value (30 min) was 79.2 mg, the “HCBT Released, Percent of Original Dose” value (30 min) was 99.0% of Original Dose and the “HCBT Released” value (45 min) was 79.4 mg. The “HCBT Released, Percent of Original Dose” value (45 min) was 99.2% of Original Dose, the “HCBT Released” value (60 min) was 79.6 mg and the “HCBT Released, Percent of Original Dose” value (60 min) was 99.5% of Original Dose.
